Results published in patent publication US9976141B2, “Compositions and methods for inhibiting gene expression of Hif2alpha” (Arrowhead Madison Inc., priority 2015, dated 2018).
Strand notation (5' to 3'): a small letter for the sugar, then the base; units joined by * are phosphorothioate-linked, units joined directly phosphodiester-linked; [ ] holds rarer units or linkages, { } end groups; capitals alone tell only the bases. d = 2'-deoxy (DNA); m = 2'-O-methyl; f = 2'-fluoro

Tested on: human EPAS1 (Hif2α) cDNA in psiCHECK2 (Renilla luciferase/EPAS1 fusion mRNA) in Hep3B cells
Test: Efficacy screen of Hif2α RNAi triggers in vitro, dual-luciferase reporter assay (1 nM and 0.1 nM)
Assay type: cell-based
Conditions: Hep3B cells co-transfected with EPAS1-psiCHECK2, Renilla luciferase normalized to firefly luciferase
Outline: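 Knockdown read by dual-luciferase assay: Renilla signal from the Renilla/EPAS1 fusion transcript divided by firefly luciferase expressed from the same plasmid. Triggers (modified canonical siRNAs, 1 nM or 0.1 nM) were co-transfected with 25 ng reporter plasmid per well into human hepatocellular carcinoma Hep3B cells.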

Substance	Relative Rluc-Hif2α (0.1 nM RNAi trigger)	Relative Rluc-Hif2α (1 nM RNAi trigger)
2320 (sense fUmUfUmGfAmUfGmCfCmGfGmAfCmAfAmGfCmCfAdT; antisense dTfGmGfCmUfUmGfUmCfCmGfGmCfAmUfCmAfAmAdT*dT; siRNA) [compound 2320]	0.770 ± 0.312	0.486 ± 0.059
2321 (sense fUmUfGmAfUmGfCmCfGmGfAmCfAmAfGmCfCmAfAdT; antisense dTfUmGfGmCfUmUfGmUfCmCfGmGfCmAfUmCfAmAdT*dT; siRNA) [compound 2321]	0.561 ± 0.043	0.665 ± 0.033
2322 (sense fGmGfAmCfAmAfGmCfCmAfCmUfGmAfGmCfGmCfAdT; antisense dTfGmCfGmCfUmCfAmGfUmGfGmCfUmUfGmUfCmCdT*dT; siRNA) [compound 2322]	0.468 ± 0.012	0.306 ± 0.059
2323 (sense fAmCfAmAfGmCfCmAfCmUfGmAfGmCfGmCfAmAfAdT; antisense dTfUmUfGmCfGmCfUmCfAmGfUmGfGmCfUmUfGmUdT*dT; siRNA) [compound 2323]	0.631 ± 0.085	0.664 ± 0.166
2324 (sense fGmGfAmCfUmAfCmAfGmCfCmUfGmUfCmGfUmCfAdT; antisense dTfGmAfCmGfAmCfAmGfGmCfUmGfUmAfGmUfCmCdT*dT; siRNA) [compound 2324]	1.081 ± 0.293	1.046 ± 0.208
2325 (sense fGmAfCmUfAmCfAmGfCmCfUmGfUmCfGmUfCmAfAdT; antisense dTfUmGfAmCfGmAfCmAfGmGfCmUfGmUfAmGfUmCdT*dT; siRNA) [compound 2325]	1.304 ± 0.134	1.379 ± 0.275
2326 (sense fCmUfAmCfAmGfCmCfUmGfUmCfGmUfCmAfGmCfAdT; antisense dTfGmCfUmGfAmCfGmAfCmAfGmGfCmUfGmUfAmGdT*dT; siRNA) [compound 2326]	0.660 ± 0.114	0.546 ± 0.083
2327 (sense fCmCfUmGfUmCfGmUfCmAfGmCfCmCfAmCfAmAfAdT; antisense dTfUmUfGmUfGmGfGmCfUmGfAmCfGmAfCmAfGmGdT*dT; siRNA) [compound 2327]	1.339 ± 0.179	1.073 ± 0.089
2328 (sense fGmCfAmUfGmGfCmAfAmGfCmCfGmGfCmUfGmCfAdT; antisense dTfGmCfAmGfCmCfGmGfCmUfUmGfCmCfAmUfGmCdT*dT; siRNA) [compound 2328]	1.291 ± 0.109	1.192 ± 0.144
2329 (sense fCmUfGmAfCmCfAmGfAmUfAmUfGmAfCmUfGmUfAdT; antisense dTfAmCfAmGfUmCfAmUfAmUfCmUfGmGfUmCfAmGdT*dT; siRNA) [compound 2329]	0.807 ± 0.117	0.456 ± 0.064
2330 (sense fGmAfUmAfUmGfAmCfUmGfUmGfAmGfGmUfGmAfAdT; antisense dTfUmCfAmCfCmUfCmAfCmAfGmUfCmAfUmAfUmCdT*dT; siRNA) [compound 2330]	1.097 ± 0.416	0.464 ± 0.035
2331 (sense fGmGfUmGfAmAfCmGfUmGfCmCfCmGfUmGfCmUfAdT; antisense dTfAmGfCmAfCmGfGmGfCmAfCmGfUmUfCmAfCmCdT*dT; siRNA) [compound 2331]	1.002 ± 0.321	0.783 ± 0.080
2332 (sense fUmAfCmAfAmGfAmUfGmGfAmCfUmUfAmCfCmUfAdT; antisense dTfAmGfGmUfAmAfGmUfCmCfAmUfCmUfUmGfUmAdT*dT; siRNA) [compound 2332]	1.174 ± 0.027	0.871 ± 0.235
2333 (sense fGmGfAmCfUmUfAmCfCmUfGmGfCmAfGmAfCmUfAdT; antisense dTfAmGfUmCfUmGfCmCfAmGfGmUfAmAfGmUfCmCdT*dT; siRNA) [compound 2333]	0.684 ± 0.147	0.291 ± 0.019
2334 (sense fUmUfUmUfUmCfUmGfAmGfAmUfGmCfUmCfAmCfAdT; antisense dTfGmUfGmAfGmCfAmUfCmUfCmAfGmAfAmAfAmAdT*dT; siRNA) [compound 2334]	0.672 ± 0.082	0.389 ± 0.044
2335 (sense fAmGfUmAfCmAfCmAfAmUfUmGfUmUfUmUfAmCfAdT; antisense dTfGmUfAmAfAmAfCmAfAmUfUmGfUmGfUmAfCmUdT*dT; siRNA) [compound 2335]	0.311 ± 0.032	0.104 ± 0.013
2336 (sense fAmCfAmAfGmUfUmUfGmGfUmGfCmAfUmGfUmCfAdT; antisense dTfGmAfCmAfUmGfCmAfCmCfAmAfAmCfUmUfGmUdT*dT; siRNA) [compound 2336]	0.783 ± 0.037	0.299 ± 0.034
2337 (sense fAmCfUmAfAmAfAmAfGmAfUmUfCmCfUmCfGmUfAdT; antisense dTfAmCfGmAfGmGfAmAfUmCfUmUfUmUfUmAfGmUdT*dT; siRNA) [compound 2337]	0.334 ± 0.066	0.131 ± 0.033

Substance	Relative Rluc-Hif2α (0.1 nM RNAi trigger)	Relative Rluc-Hif2α (1 nM RNAi trigger)
2338 (sense fAmGfGmGfUmCfAmAfCmUfCmCfAmAfCmGfUmAfAdT; antisense dTfUmAfCmGfUmUfGmGfAmGfUmUfGmAfCmCfCmUdT*dT; siRNA) [compound 2338]	0.743 ± 0.070	0.334 ± 0.091
2339 (sense fGmGfGmUfCmAfAmCfUmCfCmAfAmCfGmUfAmUfAdT; antisense dTfAmUfAmCfGmUfUmGfGmAfGmUfUmGfAmCfCmCdT*dT; siRNA) [compound 2339]	0.523 ± 0.134	0.189 ± 0.028
2340 (sense fGmUfCmAfAmCfUmCfCmAfAmCfGmUfAmUfGmUfAdT; antisense dTfAmCfAmUfAmCfGmUfUmGfGmAfGmUfUmGfAmCdT*dT; siRNA) [compound 2340]	0.920 ± 0.114	0.444 ± 0.039
2341 (sense fUmCfAmAfCmUfCmCfAmAfCmGfUmAfUmGfUmGfAdT; antisense dTfCmAfCmAfUmAfCmGfUmUfGmGfAmGfUmUfGmAdT*dT; siRNA) [compound 2341]	0.378 ± 0.116	0.202 ± 0.018
2342 (sense fCmAfAmCfUmCfCmAfAmCfGmUfAmUfGmUfGmGfAdT; antisense dTfCmCfAmCfAmUfAmCfGmUfUmGfGmAfGmUfUmGdT*dT; siRNA) [compound 2342]	1.058 ± 0.064	0.549 ± 0.041
2343 (sense fCmUfCmCfAmAfCmGfUmAfUmGfUmGfGmUfUmAfAdT; antisense dTfUmAfAmCfCmAfCmAfUmAfCmGfUmUfGmGfAmGdT*dT; siRNA) [compound 2343]	0.620 ± 0.208	0.254 ± 0.009
2344 (sense fUmCfCmAfAmCfGmUfAmUfGmUfGmGfUmUfAmUfAdT; antisense dTfAmUfAmAfCmCfAmCfAmUfAmCfGmUfUmGfGmAdT*dT; siRNA) [compound 2344]	0.570 ± 0.071	0.276 ± 0.033
2345 (sense fCmCfAmAfCmGfUmAfUmGfUmGfGmUfUmAfUmCfAdT; antisense dTfGmAfUmAfAmCfCmAfCmAfUmAfCmGfUmUfGmGdT*dT; siRNA) [compound 2345]	0.296 ± 0.096	0.129 ± 0.026
2346 (sense fAmAfCmGfUmAfUmGfUmGfGmUfUmAfUmCfUmGfAdT; antisense dTfCmAfGmAfUmAfAmCfCmAfCmAfUmAfCmGfUmUdT*dT; siRNA) [compound 2346]	0.523 ± 0.133	0.273 ± 0.012
2347 (sense fUmUfAmUfAmUfCmUfGmGfGmUfUmAfAmGfUmGfAdT; antisense dTfCmAfCmUfUmAfAmCfCmCfAmGfAmUfAmUfAmAdT*dT; siRNA) [compound 2347]	0.753 ± 0.092	0.530 ± 0.040
2348 (sense fCmCfAmCfGmGfCmCfUmGfUmAfCmGfGmAfCmAfAdT; antisense dTfUmGfUmCfCmGfUmAfCmAfGmGfCmCfGmUfGmGdT*dT; siRNA) [compound 2348]	0.840 ± 0.270	0.454 ± 0.096
2349 (sense fAmCfGmGfCmCfUmGfUmAfCmGfGmAfCmAfCmUfAdT; antisense dTfAmGfUmGfUmCfCmGfUmAfCmAfGmGfCmCfGmUdT*dT; siRNA) [compound 2349]	0.674 ± 0.172	0.504 ± 0.062
2350 (sense fUmGfUmCfGmGfCmUfUmUfUmUfGmCfCmAfUmCfAdT; antisense dTfGmAfUmGfGmCfAmAfAmAfAmGfCmCfGmAfCmAdT*dT; siRNA) [compound 2350]	0.755 ± 0.085	0.678 ± 0.105
2351 (sense fGmUfCmGfGmCfUmUfUmUfUmGfCmCfAmUfCmUfAdT; antisense dTfAmGfAmUfGmGfCmAfAmAfAmAfGmCfCmGfAmCdT*dT; siRNA) [compound 2351]	1.216 ± 0.415	1.306 ± 0.216
2352 (sense fAmUfCmUfGmUfGmAfUmAfUmGfCmCfAmUfAmGfAdT; antisense dTfCmUfAmUfGmGfCmAfUmAfUmCfAmCfAmGfAmUdT*dT; siRNA) [compound 2352]	1.012 ± 0.048	0.749 ± 0.049
2353 (sense fUmGfCmCfAmUfAmGfGmUfGmUfGmAfCmAfAmUfAdT; antisense dTfAmUfUmGfUmCfAmCfAmCfCmUfAmUfGmGfCmAdT*dT; siRNA) [compound 2353]	0.635 ± 0.156	0.324 ± 0.075
2354 (sense fCmCfAmUfAmGfGmUfGmUfGmAfCmAfAmUfCmCfAdT; antisense dTfGmGfAmUfUmGfUmCfAmCfAmCfCmUfAmUfGmGdT*dT; siRNA) [compound 2354]	1.043 ± 0.239	0.741 ± 0.189
